One may read the IC50 as the concentration needed to halve the response being measured.

For 12 compounds, IC50 results are on record in patent US20230381321A1, “CAMPTOTHECIN CONJUGATES” (priority 2022, published 2023).

Read-outs that look alike come from different tables or passages of the source.

Common to all, as to assay type: cell-based
For test [1], the system named is non-small-cell lung cancer cells (Calu1). Briefly: In vitro potency (CellTiter-Glo, 96 h) on Calu1. Particulars: Homo sapiens, Calu-1, 96 h, read-out: Calu1 IC50. In outline:
(§1)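 Cells authenticated by STR profiling and used within 2 months of resuscitation are seeded in RPMI 1640 containing 20% FBS for 24 hours; […] dilutions in medium are added and incubation runs 4 days before a luminescence read.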
(In ATP-based viability assays light output follows the ATP content of the culture.)

The test system of test [2] is renal carcinoma cells (786-O). The test can be described thus: In vitro potency (CellTiter-Glo, 96 h) on 786-O. As to conditions: Homo sapiens, 786-0, 96 h, read-out: 786-O IC50. Put shortly:
as §1

Test [3] concerns pancreatic cancer cells (BxPC3). The test can be described thus: In vitro potency (CellTiter-Glo, 96 h) on BxPC3. Particulars: Homo sapiens, BXPC-3, 96 h, read-out: BxPC3 IC50. Put shortly: as §1
Test [4] relates to Hodgkin's lymphoma cells (L540cy). The test can be described thus: In vitro potency (CellTiter-Glo, 96 h) on L540cy. As to conditions: L540cy, 96 h, read-out: L540cy IC50. In outline:
as §1

Test [5] deals with anaplastic large cell lymphoma cells (DELBVR). The test can be described thus: In vitro potency (CellTiter-Glo, 96 h) on DELBVR. As to conditions: 96 h, read-out: DELBVR IC50. Put shortly: as §1
Test [6] deals with anaplastic large cell lymphoma cells (DEL). The test can be described thus: In vitro potency (CellTiter-Glo, 96 h) on DEL. Particulars: 96 h, read-out: DEL IC50. Put shortly: as §1
Test [7] is described as follows: In vitro potency (CellTiter-Glo, 96 h) on Ls174T. Particulars: Homo sapiens, LS174T, read-out: Ls174T IC50. Put shortly:
as §1

In test [8] the test system is acute myeloid leukemia cells (MOLM-13). Briefly: In vitro potency (CellTiter-Glo, 96 h) on MOLM-13. As to conditions: Homo sapiens, MOLM-13, 96 h, read-out: MOLM-13 IC50. In outline: as §1
The next test concerns melanoma cells (A2058). Briefly: In vitro potency (CellTiter-Glo, 96 h) on A2058. As to conditions: Homo sapiens, A2058, 96 h, read-out: A2058 IC50. In outline: as §1
The test system of test [9] is anaplastic large cell lymphoma cells (Karpas299). Briefly: In vitro potency (CellTiter-Glo, 96 h) on Karpas299. As to conditions: Homo sapiens, KARPAS-299, 96 h, read-out: Karpas299 IC50. In outline: as §1
For test [10], the system named is B-lymphocyte cancer cells (SU-DHL4). Briefly: In vitro potency (CellTiter-Glo, 96 h) on SU-DHL4. As to conditions: Homo sapiens, SU-DHL-4, 96 h, read-out: SU-DHL-4 IC50. Put shortly:
as §1

In test [11] the test system is breast cancer cells (MDA-MB-231). Briefly: In vitro potency (CellTiter-Glo, 96 h) on MDA-MB-231. As to conditions: Homo sapiens, MDA-MB-231, 96 h, read-out: MDAMB 231 IC50. In outline:
as §1

Where [12] appears, read: CPT free drugs, CellTiter-Glo after 96 h exposure.

Take `CC[C@@]1(O)C(=O)OCc2c1cc1n(c2=O)Cc2c-1nc1cc3c(c(F)c1c2CN)CCC3` [Compound 5b]: the IC50 was determined as 54 nM in [1] (setting [12]); 69 nM in test [2] (setting [12]); 128 nM in [3] (setting [12]); 10 nM in [4] (setting [12]); 15 nM in test [5] (setting [12]); 17 nM in test [6] (setting [12]). Besides, the IC50 is 45 nM in test [7] (setting [12]); over 1000 nM in test [8] (setting [12]); 17 nM with melanoma cells (A2058) (setting [12]); 46 nM in test [9] (setting [12]); 27 nM in [10] (setting [12]); 36 nM in [11] (setting [12]).

In the case of `CC[C@@]1(O)C(=O)OCc2c1cc1n(c2=O)Cc2c-1nc1cc(F)c(C)c(C=C(C)C)c1c2CN` [Compound 6, (S)-11-(aminomethyl)-4-ethyl-8-fluoro-4-hydroxy-9-methyl-10-(2-methylprop-1-en-1-yl)-1,12-dihydro-14H-pyrano[3′,4′:6,7]indolizino[1,2-b]quinoline-3,14(4H)-dione], the IC50 in [1] was determined as 17 nM; in [2], 5 nM; in [3], 8 nM; in [4] it was 4 nM; in [5], 3 nM; in test [6] it was 1 nM. In addition, the IC50 in test [7] (96 h) was found to be 21 nM; in test [8], 4 nM; in the test on melanoma cells (A2058), 5 nM; in [9], 4 nM; in test [10], 2 nM; in test [11], 7 nM.

As to `C/C=C(\C)c1c(C)c(F)cc2nc3c(c(CN)c12)Cn1c-3cc2c(c1=O)COC(=O)[C@]2(O)CC` [Compound 6a], the IC50 in test [1] (setting [12]) amounted to 21 nM; in test [2] (setting [12]), 6 nM; in test [3] (setting [12]) it was 8 nM; in test [4] (setting [12]), 4 nM; in test [5] (setting [12]) it was 3 nM; in [6] (setting [12]), 2 nM. Besides, the half-inhibitory concentration (IC50) turned out to be 12 nM in [7] (setting [12]); 4 nM in [8] (setting [12]); 5 nM with melanoma cells (A2058) (setting [12]); 5 nM in test [9] (setting [12]); 2 nM in test [10] (setting [12]); 7 nM in [11] (setting [12]).

Turning to `CC[C@@]1(O)C(=O)OCc2c1cc1n(c2=O)Cc2c-1nc1cc(F)c(C)c(C3=CCCCC3)c1c2CN` [Compound 6b], the 50% inhibitory concentration (IC50) in test [1] (setting [12]) was determined as 32 nM; in test [2] (setting [12]), 23 nM; in test [3] (setting [12]) it was 18 nM; in test [4] (setting [12]), 13 nM; in test [5] (setting [12]), 5 nM; in test [6] (setting [12]), 5 nM. Moreover, the IC50 was found to be 85 nM in [7] (setting [12]); 9 nM in test [8] (setting [12]); 15 nM in the test with melanoma cells (A2058) (setting [12]); 14 nM in test [9] (setting [12]); 9 nM in test [10] (setting [12]); 35 nM in test [11] (setting [12]).

As for `CC[C@@]1(O)C(=O)OCc2c1cc1n(c2=O)Cc2c-1nc1cc(F)c(C)c(C3=CCCC3)c1c2CN` [Compound 6c], the IC50 in test [1] (setting [12]) was determined as 15 nM; in [2] (setting [12]), 4 nM; in [3] (setting [12]) it was 5 nM; in test [4] (setting [12]), 3 nM; in test [5] (setting [12]), 2 nM; in test [6] (setting [12]) it was 1 nM. Moreover, the IC50 in [7] (setting [12]) was 18 nM; in [8] (setting [12]), 4 nM; with melanoma cells (A2058) (setting [12]) it was 5 nM; in test [9] (setting [12]) it was 3 nM; in [10] (setting [12]), 2 nM; in test [11] (setting [12]) it was 7 nM.

On to `CC[C@@]1(O)C(=O)OCc2c1cc1n(c2=O)Cc2c-1nc1cc(F)c(C)c(-c3ccc(O)cc3)c1c2CN` [Compound 6f], for which the IC50 in test [1] (setting [12]) came out at 294 nM; in test [2] (setting [12]), 97 nM; in test [3] (setting [12]), 46 nM; in test [4] (setting [12]), 23 nM; in [5] (setting [12]) it was 8 nM; in test [6] (setting [12]) it was 9 nM. Also, the half-maximal inhibitory concentration (IC50) in test [7] (setting [12]) is over 1000 nM; in test [8] (setting [12]), 51 nM; in the test on melanoma cells (A2058) (setting [12]), 17 nM; in test [9] (setting [12]), 59 nM; in [10] (setting [12]), 19 nM; in test [11] (setting [12]), 139 nM.

Take `CC[C@@]1(O)C(=O)OCc2c1cc1n(c2=O)Cc2c-1nc1cc(F)c(C)c(-c3ccsc3)c1c2CN` [Compound 6g]: the IC50 in test [1] (setting [12]) turned out to be 25 nM; in test [2] (setting [12]) it was 6 nM; in test [3] (setting [12]), 7 nM; in [4] (setting [12]), 4 nM; in [5] (setting [12]), 1 nM; in test [6] (setting [12]) it was 1 nM. Moreover, the IC50 in [7] (setting [12]) was determined as 14 nM; in [8] (setting [12]), 6 nM; in the test on melanoma cells (A2058) (setting [12]) it was 4 nM; in [9] (setting [12]), 4 nM; in [10] (setting [12]) it was 2 nM; in test [11] (setting [12]) it was 12 nM.

As to `CC[C@@]1(O)C(=O)OCc2c1cc1n(c2=O)Cc2c-1nc1cc(F)c(C)c(C3=CCOCC3)c1c2CN` [Compound 6h], the IC50 in test [1] (setting [12]) was 155 nM; in test [2] (setting [12]), 36 nM; in test [3] (setting [12]) it was 100 nM; in test [4] (setting [12]) it was 19 nM; in test [5] (setting [12]), 7 nM; in [6] (setting [12]), 6 nM. In addition, the IC50 came out at 48 nM in test [7] (setting [12]); 31 nM in [8] (setting [12]); 20 nM in the test on melanoma cells (A2058) (setting [12]); 28 nM in test [9] (setting [12]); 14 nM in [10] (setting [12]); 102 nM in [11] (setting [12]).

Regarding `CC[C@@]1(O)C(=O)OCc2c1cc1n(c2=O)Cc2c-1nc1cc(F)c(C)c(-c3cccc(O)c3)c1c2CN` [Compound 6i], the half-maximal inhibitory concentration (IC50) in test [1] (setting [12]) amounted to 26 nM; in test [2] (setting [12]) it was 5 nM; in test [3] (setting [12]) it was 10 nM; in test [4] (setting [12]), 3 nM; in test [5] (setting [12]), 1 nM; in test [6] (setting [12]), 1 nM. Further, the IC50 worked out at 10 nM in test [7] (setting [12]); 2 nM in test [8] (setting [12]); 2 nM in the test with melanoma cells (A2058) (setting [12]); 4 nM in [9] (setting [12]); 2 nM in test [10] (setting [12]); 11 nM in test [11] (setting [12]).

As for `CC[C@@]1(O)C(=O)OCc2c1cc1n(c2=O)Cc2c-1nc1cc(F)c(C)c(-c3ccccc3)c1c2CN` [Compound 6j], the IC50 in test [1] (setting [12]) turned out to be 36 nM; in test [2] (setting [12]), 12 nM; in test [3] (setting [12]), 30 nM; in [4] (setting [12]) it was 9 nM; in [5] (setting [12]) it was 5 nM; in test [6] (setting [12]), 4 nM. For the same compound, the IC50 amounted to 12 nM in test [7] (setting [12]); 15 nM in test [8] (setting [12]); 10 nM with melanoma cells (A2058) (setting [12]); 9 nM in [9] (setting [12]); 14 nM in [10] (setting [12]); 103 nM in [11] (setting [12]).

Regarding `CC[C@@]1(O)C(=O)OCc2c1cc1n(c2=O)Cc2c-1nc1cc(F)c(C)c(C3=CCN(C(C)=O)CC3)c1c2CN` [Compound 6k], the IC50 in [1] (setting [12]) was determined as 170 nM; in test [2] (setting [12]), 80 nM; in [3] (setting [12]), 95 nM; in test [4] (setting [12]) it was 16 nM; in test [5] (setting [12]), 11 nM; in test [6] (setting [12]), 7 nM. The half-inhibitory concentration (IC50) in test [7] (setting [12]) was determined as 46 nM; in [8] (setting [12]), 13 nM; with melanoma cells (A2058) (setting [12]), 17 nM; in test [9] (setting [12]), 40 nM; in test [10] (setting [12]), 21 nM; in test [11] (setting [12]), 368 nM.

Regarding `CC[C@@]1(O)C(=O)OCc2c1cc1n(c2=O)Cc2c-1nc1cc(F)c(C)c(C3=CCN(C)CC3)c1c2CN` [Compound 6l], the IC50 stood at 73 nM in test [1] (setting [12]); 38 nM in [2] (setting [12]); 51 nM in [3] (setting [12]); 20 nM in test [4] (setting [12]); 15 nM in [5] (setting [12]); 6 nM in [6] (setting [12]). Moreover, the IC50 in [7] (setting [12]) is 29 nM; in test [8] (setting [12]), 16 nM; in the test on melanoma cells (A2058) (setting [12]) it was 16 nM; in [9] (setting [12]), 25 nM; in [10] (setting [12]) it was 18 nM; in test [11] (setting [12]) it was 177 nM.
